PubChem BioAssay (NCI)
Where “and” joins values, the source holds several entries; their conditions need not be identical. Identical values can stand only once.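 A five-concentration, 48-hour dose response in 96-well plates underlies each endpoint, interpolated linearly between surrounding concentrations. At the GI50, growth is halved. Definition used: TGI = concentration required for complete inhibition of growth.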

Columns and labels:
Test in all cases: NCI anticancer screen, dose series, 48 h
HCT-116 colon = tested on: HCT-116 colon
HOP-92 NSCLC = tested on: HOP-92 NSCLC
HS 578T breast = tested on: HS 578T breast
KM12 colon = tested on: KM12 colon
NCI-H460 lung = tested on: NCI-H460 lung
RXF 393 renal = tested on: RXF 393 renal
SF-539 CNS = tested on: SF-539 CNS
SN12C renal = tested on: SN12C renal
SW-620 colon = tested on: SW-620 colon
UACC-257 melanoma = tested on: UACC-257 melanoma

SMILES	TGI (HCT-116 colon)	TGI (HOP-92 NSCLC)	TGI (HS 578T breast)	TGI (KM12 colon)	TGI (NCI-H460 lung)	TGI (RXF 393 renal)	TGI (SF-539 CNS)	TGI (SN12C renal)	TGI (SW-620 colon)	TGI (UACC-257 melanoma)	GI50 (HCT-116 colon)	GI50 (HOP-92 NSCLC)	GI50 (HS 578T breast)	GI50 (KM12 colon)	GI50 (NCI-H460 lung)	GI50 (RXF 393 renal)	GI50 (SF-539 CNS)	GI50 (SN12C renal)	GI50 (SW-620 colon)	GI50 (UACC-257 melanoma)
COc1ccc2c(c1)CCc1c(-c3noc4c3CCc3cc(OC)ccc3-4)noc1-2	> 100 µM	> 100 µM	> 100 µM	> 100 µM	> 100 µM	> 100 µM	> 100 µM	> 100 µM	> 100 µM	> 100 µM										
COc1ccc(C(=O)N2CCc3c([nH]c4ccccc34)C2C(=O)O)o1 (stereo unspecified)	> 10 µM	> 10 µM	> 10 µM	> 10 µM			> 10 µM	> 10 µM	> 10 µM	> 10 µM										
NC1=C(Cl)C(=O)c2ccc(S(N)(=O)=O)cc2C1=O	0.602 µM	3.73 µM		1.06 µM	0.487 µM	0.903 µM	0.379 µM	0.34 µM	0.89 µM	0.267 µM	0.224 µM	2.04 µM	0.126 µM	0.332 µM	0.21 µM	0.286 µM	0.2 µM	0.172 µM	0.293 µM	0.128 µM
O=C(O)C1NCCc2c1[nH]c1ccccc21 (stereo unspecified)	> 100 µM	> 100 µM	> 10 µM	> 100 µM	> 100 µM	> 10 µM	> 100 µM	> 100 µM	> 100 µM	> 100 µM	> 100 µM	> 100 µM		> 100 µM			> 100 µM	> 100 µM	> 100 µM	> 100 µM
CCCCCCCC/C=C/CCCCCCCC1=NC(C)(C)CN1C(C)C	2.7 µM	2.6 µM	3.56 µM	2.97 µM	3.07 µM	3.04 µM	2.87 µM	2.78 µM	2.94 µM	3.4 µM	1.4 µM	0.819 µM	1.55 µM	1.62 µM	1.7 µM	1.58 µM	1.53 µM	1.46 µM	1.59 µM	1.86 µM
C=C1C(=O)O[C@H]2[C@H]1CC/C(COC(=O)CCCCCCCCC(=O)OC/C1=C/CC[C@@]3(C)O[C@H]3[C@H]3OC(=O)C(=C)[C@@H]3CC1)=C\CC[C@@]1(C)O[C@@H]21		4.38 µM	9.88 µM	4.68 µM	4.4 µM	3.42 µM	3.95 µM	5.32 µM	3.87 µM	4.41 µM		1.94 µM	2.91 µM	2.13 µM	2.14 µM	1.86 µM	1.9 µM	2.26 µM	1.87 µM	2.25 µM
c1cc(OCCN2CCCCCC2)ccc1CNc1ccc2nc(CCC3CCCCC3)[nH]c2c1	3.14 µM	3.09 µM	4.94 µM	9.07 µM	4.64 µM	4.4 µM	3.11 µM	4.57 µM	4 µM	4.12 µM	1.62 µM	0.836 µM	1.7 µM	2.84 µM	2.06 µM	1.53 µM	1.63 µM	1.64 µM	1.87 µM	1.94 µM
COc1ccc(-c2cnc3ccnn3c2-c2cc(OC)c(OC)c(OC)c2)cc1	> 100 µM	> 100 µM	> 100 µM	> 100 µM	> 100 µM	> 100 µM	6.11 µM	> 100 µM	> 100 µM	> 100 µM	2.97 µM	> 100 µM	2.37 µM	1.67 µM	3.39 µM	2.6 µM	1.99 µM	5.4 µM	2.36 µM	91.6 µM
O=c1cc(-c2ccc(Cl)cc2)[nH]c2ncccc12	> 100 µM	> 100 µM	> 100 µM	> 100 µM	> 100 µM		> 100 µM	> 100 µM	> 100 µM	> 100 µM	32.1 µM				37.9 µM					
C=C1C(=O)O[C@H]2[C@H]1CC/C(Cn1cc(Cn3ccc4ccccc43)nn1)=C\CC[C@@]1(C)O[C@@H]21	2.15 µM	2.29 µM	14.2 µM	15.2 µM	19.7 µM	2.82 µM	3.35 µM	3.46 µM	3.01 µM	4.41 µM	0.762 µM	1.01 µM	2.9 µM	4.21 µM	5.66 µM	1.41 µM	1.86 µM	1.65 µM	1.42 µM	2.04 µM
Cc1cc(C)c(O)c(Cc2cccc(Cc3cc(C)cc(C)c3O)c2O)c1	> 100 µM	> 100 µM	> 100 µM	> 100 µM	> 100 µM	> 100 µM	> 100 µM	> 100 µM	> 100 µM	> 100 µM										
CCOC(=O)c1c(C)nc2ccc(Cl)cc2c1-c1ccccc1	28.8 µM	20.8 µM	52.1 µM	56.8 µM	45.2 µM	47.4 µM	39.9 µM	32.7 µM	47 µM	83.1 µM	12.3 µM	1.52 µM	19.6 µM	19.8 µM	20.2 µM	17.3 µM	19.6 µM	16.8 µM	19.2 µM	25.5 µM
CN(C)CCCN(c1nc(C(Cl)(Cl)Cl)ns1)c1nc(C(Cl)(Cl)Cl)ns1	3.34 µM	5.33 µM	4.46 µM	3.44 µM	3.56 µM	3.21 µM	3.8 µM	11.6 µM	3.18 µM	3.65 µM	1.66 µM	1.64 µM	1.72 µM	1.8 µM	1.81 µM	1.81 µM	1.91 µM	3.42 µM	1.67 µM	1.8 µM
COc1cc(C#N)cc(OC)c1OCCOCCOc1c(OC)cc(C#N)cc1OC	> 100 µM	78.4 µM	> 100 µM	> 100 µM	> 100 µM		> 100 µM	> 100 µM	> 100 µM	> 100 µM	> 100 µM	10.3 µM	> 100 µM	51.7 µM	84.6 µM		> 100 µM	> 100 µM	> 100 µM	99.1 µM
C=C1C(=O)O[C@@H]2C(=O)[C@@H](C)[C@@H]3C=CC(=O)[C@@]3(C)[C@@H](OC(=O)/C(C)=C\C)[C@H]12	0.681 µM	1.43 µM	> 58.8 µM	8 µM	6.05 µM	1.47 µM	5.11 µM	2.85 µM	1.76 µM	4.65 µM										
COc1ccc(/C(C)=C(\c2ccc(Cl)cc2)c2ccc(OCCN3CCCC3)cc2)cc1F	5.64 µM	6.63 µM	9.55 µM	4.5 µM	5.29 µM	6.49 µM	5.75 µM	7.12 µM	5.68 µM	3.2 µM	2.05 µM	3.12 µM	3.77 µM	1.26 µM	2.1 µM	3.19 µM	2.74 µM	3.55 µM	2.5 µM	0.872 µM
O=C(Nc1nccs1)c1cc2c(cc1Cl)Sc1nccn1S2(=O)=O	29.5 µM	39.4 µM	91.7 µM	26.6 µM	29.5 µM	39.7 µM	37.5 µM	32.6 µM	42 µM	26.9 µM	16.1 µM		28.5 µM	12.4 µM		18.9 µM	19.4 µM	16.8 µM	16.8 µM	13.9 µM
O=C1/C(=C\C(Cl)=C/c2ccc([N+](=O)[O-])cc2)SC(=S)N1CCc1ccc(O)cc1	0.455 µM	3.29 µM	2.04 µM	1.05 µM	4.05 µM	1.11 µM	1.12 µM	1.38 µM	1.26 µM	4.28 µM	0.201 µM	1.6 µM	0.354 µM	0.312 µM	1.82 µM	0.472 µM	0.328 µM	0.33 µM	0.324 µM	1.65 µM
Clc1cc(Cl)c(Cl)c(-c2nc(-c3cccnc3)cs2)c1	> 100 µM	48.1 µM	55.5 µM	> 100 µM	> 100 µM	35.2 µM	25.4 µM	> 100 µM	23.6 µM	64.8 µM	5.3 µM	15.4 µM	18.6 µM	51.4 µM	37.7 µM	10.9 µM	10.7 µM	24.9 µM	9.34 µM	15.3 µM
C/C(CC(=O)NNc1ccc([N+](=O)[O-])cc1)=N\Nc1ccc([N+](=O)[O-])cc1	28.3 µM	28.3 µM	> 100 µM	> 100 µM	> 100 µM	46.5 µM	> 100 µM	> 100 µM	> 100 µM	> 100 µM	6.04 µM	7.94 µM	17.4 µM	2.12 µM	4.14 µM	17.7 µM	5.97 µM	17.8 µM	3.84 µM	39.6 µM
CCCc1cc2cc(-n3nc(C)c4c3CC(C)(C)CC4=O)cc(NC3CCC(O)CC3)c2c(=O)[nH]1 (stereo unspecified)	> 100 µM	1.8 µM	> 100 µM	> 100 µM	> 100 µM	2.92 µM	> 100 µM	> 100 µM	> 100 µM	> 100 µM	0.0634 µM	0.194 µM	0.989 µM	0.0986 µM	0.0744 µM	0.113 µM	0.782 µM	0.0683 µM	0.0578 µM	0.372 µM
Oc1ccc(CNCc2ccccc2)c2cccnc12	> 100 µM	0.57 µM	> 100 µM	> 100 µM	0.184 µM				> 100 µM	0.816 µM										
CC(=O)O[C@H]1C(=O)O[C@@H]2C[C@H]3C(C)=CC(=O)[C@@H](O)[C@]3(C)[C@H]3[C@@]4(O)OC[C@]32[C@@H]1[C@@H](C)[C@H]4O		0.216 µM and 0.124 µM	0.19 µM	0.317 µM and 0.306 µM	0.187 µM	0.503 µM and 0.108 µM	0.0151 µM and 0.0663 µM		0.445 µM and 0.653 µM	0.137 µM	< 0.01 µM	0.0288 µM		0.0178 µM	0.0136 µM and 0.0427 µM	0.0481 µM	< 0.01 µM	0.0304 µM	0.033 µM	0.0322 µM
CCN(CC)CCOc1ccc(/C(=C(\C)Cc2ccc(OC)cc2)c2ccc(OC(=O)NCc3ccccc3)cc2)cc1	2.97 µM	3.17 µM	6.16 µM	3.89 µM	3.37 µM	3.08 µM	3.19 µM	3.21 µM	3.59 µM	4.2 µM	1.57 µM	1.48 µM	2.36 µM	1.87 µM	1.84 µM	1.65 µM	1.75 µM	1.73 µM	1.91 µM	2.04 µM
Cc1n[nH]c(=S)n1/N=C/c1ccc(F)c(Oc2ccccc2)c1	> 100 µM	> 100 µM	> 100 µM	> 100 µM	> 100 µM	> 100 µM	65.1 µM	> 100 µM	> 100 µM	75.3 µM	36 µM	63.3 µM	33.2 µM	41.3 µM	39 µM	> 100 µM	27.7 µM	95.6 µM	36.5 µM	25.4 µM
COc1cc(/C=C/C(=O)c2ccc(Nc3ncnc4ccccc34)cc2)cc(OC)c1	1.17 µM	52.7 µM	69.8 µM	5.38 µM	> 100 µM	9.32 µM	18 µM	38 µM	9.68 µM	34.1 µM	0.346 µM	1.32 µM	8.21 µM	1.77 µM	14.2 µM	2.11 µM	4.98 µM	7.3 µM	2.38 µM	9.7 µM
COc1ccc(-c2nn(-c3cccc(NC(=O)Nc4ccc(Cl)c(C(F)(F)F)c4)c3)cc2-c2ccncc2)cc1Cl	8.6 µM		9.3 µM	8.55 µM	8.99 µM	4.83 µM	5.11 µM	> 100 µM	63.9 µM	7.42 µM	2.02 µM		2.27 µM	2 µM	1.99 µM	1.42 µM	2.04 µM	2.99 µM	3.66 µM	2.44 µM
